Laboratory results published in US20060084672A1, “Method for modification of y-secretase activity through inhibition of Fkbp13” (The Hospital for Sick Children, priority 2004, published 2006).

What was measured:
Actin = Actin levels in HEK293 cells transfected with Fkbp13 and Psn (Western blot); assay type: cell-based; details: treated for 1-24 hours
Description: Protein quantification, SDS-polyacrylamide gel electrophoresis (5-12% or 8-12% gradient gel, or 10% SDS-PAGE) and immunoblot analysis were carried out as described previously (Guo et al. Journal of Cell Science 113:3499-3508 2000) using the monoclonal antibodies, anti-β-actin and anti-FLAG (Sigma), anti-GFP (Santa Cruz Biotechnology), anti-HA (12c-A5, Roche), anti-β-tubulin (Developmental Studies Hybridoma Bank), anti-Xpress and anti-V5 (Invitrogen) and a polyclonal anti-GFP (Santa Cruz Biotechnology). Microsomal fractions were prepared from cells using a detergent-free protocol. All steps were performed at <4° C. Cell pellets were resuspended in 300 μl hypo-osmotic buffer (20 mM Tris/HCl, pH 7.5) supplemented with complete protease inhibitor (Roche), homogenized through a 27G needle and sonicated. Nuclei were removed by centrifugation (1200 g, 25 minutes) and the post-nuclear supernatant (containing membrane and soluble fractions) was denatured for 5 minutes at 100° C. in SDS-PAGE sample buffer. […]
(§1) To determine the effect of drug treatment on Psn stability, HEK293 cells were transiently co-transfected with psn and Fkbp13 constructs. 24 hours after transfection, 100 mm dishes of transfected HEK293 cells were treated with 5 μM FK506 (CALBIOCHEM), 1 μM Rapamycin (CALBIOCHEM) or DMSO (control), harvested at various time points and analyzed by Western blotting techniques. […]

γ-secretase = biological target: T1, γ-secretase (Homo sapiens, UniProt P49768); experiment: Aβ1-40 sandwich ELISA in Cos-7 cells stably expressing APP C99 and transfected with human PS1; assay type: cell-based
T1 construct: expressed in transfected cells; host or cells: Cos-7 stably expressing APP C99 (pCEP4-SPA4CT-DA)
Description: To determine the effect of drug treatment on Psn stability, HEK293 cells were transiently co-transfected with psn and Fkbp13 constructs. 24 hours after transfection, 100 mm dishes of transfected HEK293 cells were treated with 5 μM FK506 (CALBIOCHEM), 1 μM Rapamycin (CALBIOCHEM) or DMSO (control), harvested at various time points and analyzed by Western blotting techniques. To measure Aβ40, Cos-7 cells were transfected with pCEP4-SPA4CT-DA (gift from Dr. Gunter Merdes, ZMBH, University of Heidelberg) that contains an APP^C99 cDNA using lipofectin (Gibco) according to the manufacturers protocol. Cells stably expressing APP^C99 were selected using 300 μg/ml hygromycin and maintained in DMEM medium containing 10% FBS, […] penicillin-streptomycin and 100 μg/ml hygromycin. These cells were then transiently transfected with plasmids carrying human PS1. 48 hours after transfection, cells were starved in serum-free DMEM medium for 2 hours, then treated with 1 μm of the γ-secretase inhibitor DAPT or 0.5 μm of the Fkbp13 inhibitor rapamycin or FK506 respectively, in DMEM medium containing 5% FBS o/n. Cells then were harvested and lysed and the conditioned lysates were used to measure Aβ1-40 by sandwich ELISA as described in (Yan et al. Nature 402:533-537 1999)using 6E10 (Senetek) as the capture antibody and the polyclonal Pan-β-Amyloid (Oncogene) for detection of Aβ40. […]

Fkbp13 = Fkbp13 levels in HEK293 cells transfected with Fkbp13 and Psn (Western blot); assay type: cell-based, Drosophila; details: treated for 1-24 hours
Description: HEK293 cells were maintained at 37° C. and 5% CO2 in α-minimal essential medium (Hyclone) supplemented with 10% heat-inactivated fetal bovine serum and plated 24 hours before transfection. For each 10 cm tissue culture dish, 12-16 μg cDNA was used. HEK293 cells were transiently transfected with plasmids encoding Drosophila Rya-r44f, Fkbp13, or psn using calcium phosphate precipitation. The cells were harvested 40-42 hours afer transfection.
Protein quantification, SDS-polyacrylamide gel electrophoresis (5-12% or 8-12% gradient gel, or 10% SDS-PAGE) and immunoblot analysis were carried out as described previously (Guo et al. Journal of Cell Science 113:3499-3508 2000) using the monoclonal antibodies, anti-β-actin and anti-FLAG (Sigma), anti-GFP (Santa Cruz Biotechnology), anti-HA (12c-A5, Roche), anti-β-tubulin (Developmental Studies Hybridoma Bank), anti-Xpress and anti-V5 (Invitrogen) and a polyclonal anti-GFP (Santa Cruz Biotechnology). Microsomal fractions were prepared from cells using a detergent-free protocol. […]
as §1

human PS-1 = experiment: 35S-methionine pulse-chase of PS1 stability in Cos-7 cells; assay type: cell-based; details: Cos-7 cells transfected with human PS-1, in the presence of FK506; without FK506 3.5±0.2 h
Description: In order to confirm that FK506 was affecting the stability of PS1 a pulse-chase of ^35S-methionine was performed and the amount of PS1 remaining after various chase periods was measured by immunoprecipitation and autoradiography.
Pulse-chase labeling of cells was performed using TRAN ^35S-LABEL™ Metabolic Labeling Reagent (ICN). Cos-7 cells were transiently transfected with human PS-1. After 48 hours, cells were washed with PBS and then starved in the presence of methionine and cysteine free DMEM (Invitrogen) containing 10% dialyzed fetal bovine serum for 1 hour at 37° C. Cells were then incubated with [^35S] methionine (400 μCi/ml) in the presence or absence of FK506 for an additional 2 hours. The cells were then washed with 10 ml of PBS twice and chased with DMEM containing the indicated reagents for various times. Cells were then harvested and lysed in IP buffer and TCA precipitated to quantify the incorporation of ^35S-methionine. Equal amounts of microsomal fractions from radioactive cells were then incubated with 2 μg of anti-human PS1. Subsequently, […] of protein A agarose beads (Invitrogen) were added to the IP reactions and rotated for 2 hours at 4° C. The beads were then washed 4 times with IP washing buffer, denatured in 2× SDS-PAGE sample buffer and run on 12% SDS-PAGE.

APH-1 = APH-1 protein levels in transfected Drosophilia S2 cells (Western analysis); assay type: cell-based; details: 50 μM FK506 over a 24 hour period
Excerpt: (§2) In order to determine if Fkbp13 can also affect the stability of other components of the γ-secretase complex, Drosophilia S2 cells were transfected with tagged constructs expressing APH-1, PEN-2 or Nct and then examined for the effects of FK506 on protein levels.
(§3) cDNA's encoding APH-1, PEN-2 and Nct were subcloned into pAc5.1/V5-HisA or pIB/V5-His TOPO and transiently transfected into Drosophilia S2 cells using cellfectin according to the manufacturer's protocol (Invitrogen). Cells were collected between 24-48 hours for Western analysis using the following antibodies: monoclonal anti-V5 1:5000(Invitrogen), monoclonal anti-HA 1:2000(Roche), monoclonal anti-FLAG M2 1:5000(Sigma) and monoclonal anti-β-tubulin 1:1000 (DSHB).
(§4) In contrast, no effect was observed on the levels of either APH-1 or Nct (FIG. 4A). […] Drosophilia S2 cells were transfected with tagged versions of APH-1, PEN-2 or Nct and treated with 50 μM FK506 over a 24 hour period. No effect was observed on the levels of APH-1, Nct or β-tubulin control. Similarly, no effect was observed using either DMSO (control) or the known γ-secretase inhibitor, DAPT.

Nct = Nct protein levels in transfected Drosophilia S2 cells (Western analysis); assay type: cell-based; details: 50 μM FK506 over a 24 hour period
Excerpt: as §2, §3, §4

PEN-2 = PEN-2 protein levels in transfected Drosophilia S2 cells (Western analysis); assay type: cell-based; details: concentration not given
Excerpt: as §2, §3, §4

| decrease in the levels of β-amyloid peptide (γ-secretase; APP C99 + human PS1, 0.5 μm FK506 o/n, vs untreated or DMSO treated controls) | β-amyloid peptide production (in words) (γ-secretase; APP C99 + human PS1, 1 μm DAPT or 0.5 μm rapamycin o/n) | SMILES | levels of Actin (Actin) | levels of Fkbp13 (Fkbp13) | PS1 half-life (human PS-1) | levels of APH-1 (APH-1) | levels of Nct (Nct) | effect of DAPT on protein levels (PEN-2) in S2 cells (PEN-2) |
| --- | --- | --- | --- | --- | --- | --- | --- | --- |
| 80% |  | C=CC[C@@H]1/C=C(\C)C[C@H](C)C[C@H](OC)[C@H]2O[C@@](O)(C(=O)C(=O)N3CCCC[C@H]3C(=O)O[C@H](/C(C)=C/[C@@H]3CC[C@@H](O)[C@H](OC)C3)[C@H](C)[C@@H](O)CC1=O)[C@H](C)C[C@@H]2OC [FK506] | no effect | no effect | 1.25 ± 0.3 h | no effect | no effect |  |
|  | comparable | C[C@H](NC(=O)Cc1cc(F)cc(F)c1)C(=O)N[C@H](C(=O)OC(C)(C)C)c1ccccc1 [DAPT] |  |  |  |  |  | no effect |
